Assay results as given in US11780893B2, “Kv1.3 blockers” (Zealand Pharma A/S, priority 2019, dated 2023).
Bridge positions count the residues as written; N and C are the ends. Square brackets hold non-standard residues; d marks the D form. Peptide text beside a SMILES is read from it. Nle = CCCC[C@H](N)C(=O)O

Molecular target: T1, human Kv1.3 voltage-gated K+ channel (Homo sapiens, UniProt P22001)
T1 construct: host or cells: CHO-DUKX
Assay: cell-based
Conditions: inhibition of thallium flux, CHO-DUKX cells with human Kv1.3; read-out: IC50

T1 sequence (P22001 whole entry): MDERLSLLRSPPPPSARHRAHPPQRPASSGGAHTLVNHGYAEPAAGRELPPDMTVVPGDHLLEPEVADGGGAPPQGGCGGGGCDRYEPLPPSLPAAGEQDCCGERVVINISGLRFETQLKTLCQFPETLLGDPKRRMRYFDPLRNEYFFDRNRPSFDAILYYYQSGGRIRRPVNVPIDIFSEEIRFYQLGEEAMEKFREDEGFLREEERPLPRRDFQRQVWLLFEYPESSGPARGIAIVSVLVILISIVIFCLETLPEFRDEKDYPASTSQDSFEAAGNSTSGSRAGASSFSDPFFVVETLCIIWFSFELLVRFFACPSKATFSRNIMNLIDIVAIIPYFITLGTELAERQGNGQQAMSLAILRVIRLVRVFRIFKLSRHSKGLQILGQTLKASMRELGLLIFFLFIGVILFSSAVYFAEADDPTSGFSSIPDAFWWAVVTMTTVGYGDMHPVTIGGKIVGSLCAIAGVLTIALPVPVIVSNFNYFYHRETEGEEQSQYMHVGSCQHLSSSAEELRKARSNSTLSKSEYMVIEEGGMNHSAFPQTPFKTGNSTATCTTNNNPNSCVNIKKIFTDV

Structure (SMILES) | IC50 [nM]
CCCC[C@@H]1NC(=O)[C@@H]2CSSC[C@H](NC(=O)[C@H](CCCNC(=N)N)NC(=O)[C@H](CCCC)NC(=O)[C@H](CCC(=O)O)NC(=O)[C@H](CCCC)NC(=O)[C@H]3CCCN3)C(=O)N[C@@H](CO)C(=O)N[C@@H](C)C(=O)N[C@@H](CO)C(=O)N[C@@H](C(C)C)C(=O)N[C@@H](CCC(=O)O)C(=O)N[C@H]3CSSC[C@H](NC(=O)[C@H](CCCCN)NC(=O)[C@H](CCCCN)NC(=O)[C@H](CC(N)=O)NC1=O)C(=O)N[C@@H](CCCCN)C(=O)N[C@H](C(=O)N[C@@H](Cc1ccc(O)cc1)C(=O)N1CCC[C@H]1C(=O)N[C@@H](CCCNC(=N)N)C(=O)O)CSSC[C@H](NC(=O)[C@H](CCCCN)NC(=O)[C@H](CCC(N)=O)NC(=O)[C@H](CCCCN)NC3=O)C(=O)N[C@@H](CC(C)C)C(=O)N[C@@H](C)C(=O)N[C@@H](C)C(=O)N[C@@H]([C@@H](C)CC)C(=O)NCC(=O)N[C@@H](CO)C(=O)N[C@@H]([C@@H](C)CC)C(=O)N[C@@H](Cc1ccccc1)C(=O)NCC(=O)N[C@@H](CCCCN)C(=O)N2 [Compound 119] (H-[dP][Nle]E[Nle]RCSASVECKQKCLAAIGSIFGKC[Nle]NKKCKCYPR-OH; disulfide 6-27, 12-32, 16-34) | 0.63
CCCC[C@H](NC(=O)[C@@H]1CCCN1)C(=O)N[C@@H](CCC(=O)O)C(=O)N[C@@H](CCCC)C(=O)N[C@@H](CCCNC(=N)N)C(=O)N[C@H]1CSSC[C@@H]2NC(=O)[C@H](CCCCN)NC(=O)CNC(=O)[C@H](Cc3ccccc3)NC(=O)[C@H]([C@@H](C)CC)NC(=O)[C@H](CO)NC(=O)CNC(=O)[C@H]([C@@H](C)CC)NC(=O)[C@H](C)NC(=O)[C@H](C)NC(=O)[C@H](CC(C)C)NC(=O)[C@@H]3CSSC[C@@H](C(=O)N[C@@H](Cc4ccc(O)cc4)C(=O)N[C@@H](CCCNC(=N)N)C(=O)O)NC(=O)[C@H](CCCCN)NC(=O)[C@H](CSSC[C@H](NC(=O)[C@H](CCC(=O)O)NC(=O)[C@H](C(C)C)NC(=O)[C@H](CO)NC(=O)[C@H](C)NC(=O)[C@H](CO)NC1=O)C(=O)N[C@@H](CCCCN)C(=O)N[C@@H](CCC(N)=O)C(=O)N[C@@H](CCCCN)C(=O)N3)NC(=O)[C@H](CCCCN)NC(=O)[C@H](CCCCN)NC(=O)[C@H](CC(N)=O)NC(=O)[C@H](CCCC)NC2=O [Compound 120] (H-P[Nle]E[Nle]RCSASVECKQKCLAAIGSIFGKC[Nle]NKKCKCYR-OH; disulfide 6-27, 12-32, 16-34) | 0.894
CCCC[C@@H]1NC(=O)[C@@H]2CSSC[C@H](NC(=O)[C@H](CCCNC(=N)N)NC(=O)[C@H](CCCC)NC(=O)[C@H](CCC(=O)O)NC(=O)[C@@H](N)CCCC)C(=O)N[C@@H](CO)C(=O)N[C@@H](C)C(=O)N[C@@H](CO)C(=O)N[C@@H](C(C)C)C(=O)N[C@@H](CCC(=O)O)C(=O)N[C@H]3CSSC[C@H](NC(=O)[C@H](CCCCN)NC(=O)[C@H](CCCCN)NC(=O)[C@H](CC(N)=O)NC1=O)C(=O)N[C@@H](CCCCN)C(=O)N[C@H](C(=O)N[C@@H](Cc1ccc(O)cc1)C(=O)N1CCC[C@H]1C(=O)N[C@@H](CCCNC(=N)N)C(=O)O)CSSC[C@H](NC(=O)[C@H](CCCCN)NC(=O)[C@H](CCC(N)=O)NC(=O)[C@H](CCCCN)NC3=O)C(=O)N[C@@H](CC(C)C)C(=O)N[C@@H](C)C(=O)N[C@@H](C)C(=O)N[C@@H]([C@@H](C)CC)C(=O)NCC(=O)N[C@@H](CO)C(=O)N[C@@H]([C@@H](C)CC)C(=O)N[C@@H](Cc1ccccc1)C(=O)NCC(=O)N[C@@H](CCCCN)C(=O)N2 [Compound 121] (H-[Nle]E[Nle]RCSASVECKQKCLAAIGSIFGKC[Nle]NKKCKCYPR-OH; disulfide 5-26, 11-31, 15-33) | 0.451
CCCC[C@H](NC(=O)[C@@H]1CCCN1)C(=O)N[C@@H](CCC(=O)O)C(=O)N[C@@H](CCCC)C(=O)N[C@@H](CCCNC(=N)N)C(=O)N[C@H]1CSSC[C@@H]2NC(=O)[C@H](CCCCN)NC(=O)CNC(=O)[C@H](Cc3ccccc3)NC(=O)[C@H]([C@@H](C)CC)NC(=O)[C@H](CO)NC(=O)CNC(=O)[C@H]([C@@H](C)CC)NC(=O)[C@H](C)NC(=O)[C@H](C)NC(=O)[C@H](CC(C)C)NC(=O)[C@@H]3CSSC[C@@H](C(=O)N[C@@H](Cc4ccc(O)cc4)C(=O)N4CCC[C@H]4C(=O)N[C@@H](CCCNC(=N)N)C(=O)N[C@@H](CCCNC(=N)N)C(=O)O)NC(=O)[C@H](CCCCN)NC(=O)[C@H](CSSC[C@H](NC(=O)[C@H](CCC(=O)O)NC(=O)[C@H](C(C)C)NC(=O)[C@H](CO)NC(=O)[C@H](C)NC(=O)[C@H](CO)NC1=O)C(=O)N[C@@H](CCCCN)C(=O)N[C@@H](CCC(N)=O)C(=O)N[C@@H](CCCCN)C(=O)N3)NC(=O)[C@H](CCCCN)NC(=O)[C@H](CCCCN)NC(=O)[C@H](CC(N)=O)NC(=O)[C@H](CCCC)NC2=O [Compound 122] (H-P[Nle]E[Nle]RCSASVECKQKCLAAIGSIFGKC[Nle]NKKCKCYPRR-OH; disulfide 6-27, 12-32, 16-34) | 0.226
CCCC[C@H](NC(=O)[C@@H]1CCCN1)C(=O)N[C@@H](CCC(=O)O)C(=O)N[C@@H](CCCC)C(=O)N[C@@H](CCCNC(=N)N)C(=O)N[C@H]1CSSC[C@@H]2NC(=O)[C@H](CCCCN)NC(=O)CNC(=O)[C@H](Cc3ccccc3)NC(=O)[C@H]([C@@H](C)CC)NC(=O)[C@H](CO)NC(=O)CNC(=O)[C@H]([C@@H](C)CC)NC(=O)[C@H](C)NC(=O)[C@H](C)NC(=O)[C@H](CC(C)C)NC(=O)[C@@H]3CSSC[C@@H](C(=O)N[C@@H](Cc4ccc(O)cc4)C(=O)N4CCC[C@H]4C(=O)N[C@@H](CCCNC(=N)N)C(=O)N[C@@H](Cc4ccc(O)cc4)C(=O)O)NC(=O)[C@H](CCCCN)NC(=O)[C@H](CSSC[C@H](NC(=O)[C@H](CCC(=O)O)NC(=O)[C@H](C(C)C)NC(=O)[C@H](CO)NC(=O)[C@H](C)NC(=O)[C@H](CO)NC1=O)C(=O)N[C@@H](CCCCN)C(=O)N[C@@H](CCC(N)=O)C(=O)N[C@@H](CCCCN)C(=O)N3)NC(=O)[C@H](CCCCN)NC(=O)[C@H](CCCCN)NC(=O)[C@H](CC(N)=O)NC(=O)[C@H](CCCC)NC2=O [Compound 123] (H-P[Nle]E[Nle]RCSASVECKQKCLAAIGSIFGKC[Nle]NKKCKCYPRY-OH; disulfide 6-27, 12-32, 16-34) | 1.04
CCCC[C@H](NC(=O)[C@@H]1CCCN1)C(=O)N[C@@H](CCC(=O)O)C(=O)N[C@@H](CCCC)C(=O)N[C@@H](CCCNC(=N)N)C(=O)N[C@H]1CSSC[C@@H]2NC(=O)[C@H](CCCCN)NC(=O)CNC(=O)[C@H](Cc3ccccc3)NC(=O)[C@H]([C@@H](C)CC)NC(=O)[C@H](CO)NC(=O)CNC(=O)[C@H]([C@@H](C)CC)NC(=O)[C@H](C)NC(=O)[C@H](C)NC(=O)[C@H](CC(C)C)NC(=O)[C@@H]3CSSC[C@@H](C(=O)N[C@@H](Cc4ccc(O)cc4)C(=O)N4CCC[C@H]4C(=O)N[C@@H](CCCNC(=N)N)C(=O)N[C@@H](CC(C)C)C(=O)O)NC(=O)[C@H](CCCCN)NC(=O)[C@H](CSSC[C@H](NC(=O)[C@H](CCC(=O)O)NC(=O)[C@H](C(C)C)NC(=O)[C@H](CO)NC(=O)[C@H](C)NC(=O)[C@H](CO)NC1=O)C(=O)N[C@@H](CCCCN)C(=O)N[C@@H](CCC(N)=O)C(=O)N[C@@H](CCCCN)C(=O)N3)NC(=O)[C@H](CCCCN)NC(=O)[C@H](CCCCN)NC(=O)[C@H](CC(N)=O)NC(=O)[C@H](CCCC)NC2=O [Compound 124] (H-P[Nle]E[Nle]RCSASVECKQKCLAAIGSIFGKC[Nle]NKKCKCYPRL-OH; disulfide 6-27, 12-32, 16-34) | 1.47
CCCC[C@H](NC(=O)[C@@H]1CCCN1)C(=O)N[C@@H](CCC(=O)O)C(=O)N[C@@H](CCCC)C(=O)N[C@@H](CCCNC(=N)N)C(=O)N[C@H]1CSSC[C@@H]2NC(=O)[C@H](CCCCN)NC(=O)CNC(=O)[C@H](Cc3ccccc3)NC(=O)[C@H]([C@@H](C)CC)NC(=O)[C@H](CO)NC(=O)CNC(=O)[C@H]([C@@H](C)CC)NC(=O)[C@H](C)NC(=O)[C@H](C)NC(=O)[C@H](CC(C)C)NC(=O)[C@@H]3CSSC[C@@H](C(=O)N[C@@H](Cc4ccc(O)cc4)C(=O)N4CCC[C@H]4C(=O)N[C@@H](CCCNC(=N)N)C(=O)N[C@@H](Cc4c[nH]cn4)C(=O)O)NC(=O)[C@H](CCCCN)NC(=O)[C@H](CSSC[C@H](NC(=O)[C@H](CCC(=O)O)NC(=O)[C@H](C(C)C)NC(=O)[C@H](CO)NC(=O)[C@H](C)NC(=O)[C@H](CO)NC1=O)C(=O)N[C@@H](CCCCN)C(=O)N[C@@H](CCC(N)=O)C(=O)N[C@@H](CCCCN)C(=O)N3)NC(=O)[C@H](CCCCN)NC(=O)[C@H](CCCCN)NC(=O)[C@H](CC(N)=O)NC(=O)[C@H](CCCC)NC2=O [Compound 125] (H-P[Nle]E[Nle]RCSASVECKQKCLAAIGSIFGKC[Nle]NKKCKCYPRH-OH; disulfide 6-27, 12-32, 16-34) | 0.383
CCCC[C@H](NC(=O)[C@@H]1CCCN1)C(=O)N[C@@H](CCC(=O)O)C(=O)N[C@@H](CCCC)C(=O)N[C@@H](CCCNC(=N)N)C(=O)N[C@H]1CSSC[C@@H]2NC(=O)[C@H](CCCCN)NC(=O)CNC(=O)[C@H](Cc3ccccc3)NC(=O)[C@H]([C@@H](C)CC)NC(=O)[C@H](CO)NC(=O)CNC(=O)[C@H]([C@@H](C)CC)NC(=O)[C@H](C)NC(=O)[C@H](C)NC(=O)[C@H](CC(C)C)NC(=O)[C@@H]3CSSC[C@@H](C(=O)N[C@@H](Cc4ccc(O)cc4)C(=O)N4CCC[C@H]4C(=O)N[C@@H](CCCNC(=N)N)C(=O)N[C@@H](CCC(=O)O)C(=O)O)NC(=O)[C@H](CCCCN)NC(=O)[C@H](CSSC[C@H](NC(=O)[C@H](CCC(=O)O)NC(=O)[C@H](C(C)C)NC(=O)[C@H](CO)NC(=O)[C@H](C)NC(=O)[C@H](CO)NC1=O)C(=O)N[C@@H](CCCCN)C(=O)N[C@@H](CCC(N)=O)C(=O)N[C@@H](CCCCN)C(=O)N3)NC(=O)[C@H](CCCCN)NC(=O)[C@H](CCCCN)NC(=O)[C@H](CC(N)=O)NC(=O)[C@H](CCCC)NC2=O [Compound 126] (H-P[Nle]E[Nle]RCSASVECKQKCLAAIGSIFGKC[Nle]NKKCKCYPRE-OH; disulfide 6-27, 12-32, 16-34) | 6.49
